Structures can show the parent of a compound that is named as a salt.
Target: T1, rat NaPi-2b (Rattus norvegicus, UniProt Q9JJ09)
T1 construct: expressed in transfected cells; host or cells: Xenopus oocytes injected with cRNA
T1 sequence (Q9JJ09 1-695): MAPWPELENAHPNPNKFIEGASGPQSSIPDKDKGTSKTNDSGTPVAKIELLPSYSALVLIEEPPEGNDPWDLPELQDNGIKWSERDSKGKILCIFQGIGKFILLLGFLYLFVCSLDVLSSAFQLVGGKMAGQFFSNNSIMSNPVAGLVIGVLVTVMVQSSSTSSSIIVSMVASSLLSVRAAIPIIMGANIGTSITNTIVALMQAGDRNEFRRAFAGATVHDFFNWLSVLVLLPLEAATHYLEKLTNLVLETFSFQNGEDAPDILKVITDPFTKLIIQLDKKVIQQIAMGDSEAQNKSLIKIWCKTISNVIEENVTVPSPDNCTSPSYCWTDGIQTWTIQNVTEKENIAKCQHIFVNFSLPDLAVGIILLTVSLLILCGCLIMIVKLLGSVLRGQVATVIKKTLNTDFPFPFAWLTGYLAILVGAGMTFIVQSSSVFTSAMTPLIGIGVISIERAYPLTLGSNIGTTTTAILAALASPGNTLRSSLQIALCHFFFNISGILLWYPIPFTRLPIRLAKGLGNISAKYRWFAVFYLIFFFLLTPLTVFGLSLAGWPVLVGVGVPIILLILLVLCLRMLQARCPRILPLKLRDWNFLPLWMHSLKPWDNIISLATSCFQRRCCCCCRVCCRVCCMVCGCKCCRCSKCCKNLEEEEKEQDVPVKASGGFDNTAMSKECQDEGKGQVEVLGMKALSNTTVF
Experiment: Sodium-dependent phosphate uptake of Xenopus oocytes which expressed NaPi-2b (32P)
Assay type: cell-based
Conditions: for IC50: Xenopus oocytes expressing rat NaPi-2b, 32P radioactive phosphorus, read-out: IC50 (phosphate uptake inhibitory activity); for inhibition at 300 µM: phosphate uptake, oocytes expressing rat NaPi-2b, determined from inhibition curve
Outline: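 Rat NaPi-2b cloned from small-intestine cDNA; cRNA injected into Xenopus oocytes, expression for 2 days. Phosphate uptake inhibition measured with 32P; percent inhibition at 300 μM and 100 μM read from the same inhibition curve.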

SMILES	IC50 [µM]	inhibition at 300 µM [%]
Cc1ccc(/C=N/NC(=O)c2cc(Cl)ccc2NC(=O)c2ccccn2)cc1C [Compound 363, Pyridin-2-carboxylic acid [4-chloro-2-(3,4-dimethyl-benzylidene-hydrazinocarbonyl)-phenyl]-amide]	< 1	–
CCOCCN(CCOCC)Cc1ccc(C(=O)Nc2ccc(Br)cc2C(=O)N/N=C/c2ccc(F)cc2)cc1 [Compound 736, 4-{[Bis-(2-ethoxy-ethyl)-amino]-methyl}-N-[4-bromo-2-(4-fluoro-benzylidene-hydrazinocarbonyl)-phenyl]-benzamide]	–	61.5
CN(CCCN(C)Cc1cccc(C(=O)Nc2ccc(Cl)cc2C(=O)N/N=C/c2ccc(F)cc2)c1)Cc1cccc(C(=O)Nc2ccc(Cl)cc2C(=O)N/N=C/c2ccc(F)cc2)c1 [Compound 701, N1-[4-Chloro-2-({2-[(E)-1-(4-fluorophenyl)methylidene]-hydrazino}carbonyl}phenyl}-3-{[{3-[(3-{[4-chloro-2-([2-[(E)-1-(4-fluorophenyl)methylidene]hydrazino}carbonyl}anilino}carbonyl}benzyl}-(methyl)amino)propyl)(methyl)amino]methyl]benzamide]	–	54
CN(C)c1ccc(/C=C/C=N/NC(=O)c2ccccc2NC(=O)c2cccnc2)cc1 [Compound 358, N-{2-[3-(4-Dimethylamino-phenyl)-allylidene-hydrazinocarbonyl]-phenyl}-nicotinamide]	54.1	–
Cc1ccc(/C=N/NC(=O)c2cc(Br)ccc2NC(=O)c2ccc(CNCCCN(CCO)CCO)cc2)cc1C [Compound 300, 4-({3-[Bis-(2-hydroxy-ethyl)-amino]-propylamino}-methyl)-N-[4-bromo-2-(3,4-dimethyl-benzylidene-hydrazinocarbonyl)-phenyl]-benzamide]	1.92	–
O=C(Nc1sc2c(c1C(=O)N/N=C/c1ccc(F)cc1)CCCC2)c1cccc(CN2CCC(N3CCCCC3)CC2)c1 [Compound 617, 3-[1,4′]Bipiperidinyl-1′-ylmethyl-N-[3-(4-fluoro-benzylidene-hydrazinocarbonyl)-4,5,6,7-tetrahydro-benzo[b]thiophen-2-yl]-benzamide]	3.68	–
COc1cc(OC)cc(C(=O)Nc2ccccc2C(=O)N/N=C/c2ccc(OC)c(Br)c2)c1 [Compound 99, N-[2-(3-Bromo-4-methoxy-benzylidene-hydrazinocarbonyl)-phenyl]-3,5-dimethoxy-benzamide]	3.03	–
Cc1ccc(/C=N/NC(=O)c2c(NC(=O)c3cccc(CN4CCN(CCO)CC4)c3)sc3c2CCCC3)cc1C [Compound 621, N-[3-(3,4-Dimethyl-benzylidene-hydrazinocarbonyl)-4,5,6,7-tetrahydro-benzo[b]thiophen-2-yl]-3-[4-(2-hydroxy-ethyl)-piperazin-1-ylmethyl]-benzamide]	< 3	–
Cc1cc(/C=N/NC(=O)c2cc(Br)ccc2NC(=O)c2ccncc2)oc1C [Compound 221, N-[4-Bromo-2-(4,5-dimethyl-furan-2-ylmethylene-hydrazinocarbonyl)-phenyl]-isonicotinamide]	9.51	–
CCN(CC)CCN(C)Cc1cccc(C(=O)Nc2ccc(OCCCCF)cc2C(=O)N/N=C/c2ccc(C)cc2)c1 [Compound 1058, 3-{[(2-Diethylamino-ethyl)-methyl-amino]-methyl}-N-[4-(4-fluoro-butoxy)-2-(4-methyl-benzylidene-hydrazinocarbonyl)-phenyl]-benzamide]	1.07	–
Cc1cccc(/C=N/NC(=O)c2ccccc2NC(=O)c2cccnc2)c1 [Compound 131, N-[2-(3-Methyl-benzylidene-hydrazinocarbonyl)-phenyl]-nicotinamide]	–	32.4
COc1ccc(C(=O)Nc2ccccc2C(=O)N/N=C/c2cc(C(F)(F)F)cc(C(F)(F)F)c2)cc1OC [Compound 8, N-[2-(3,5-Bis-trifluoromethyl-benzylidene-hydrazinocarbonyl)-phenyl]-3,4-dimethoxy-benzamide]	1.72	–

Second part, the molecule after the results:

IC50 [µM]	inhibition at 300 µM [%]	SMILES
137	–	COc1ccc(/C=N/NC(=O)c2ccsc2NC(=O)c2cccc(CSCCCO)c2)cc1 [Compound 663, 3-(3-Hydroxy-propylsulfanylmethyl)-N-[3-(4-methoxy-benzylidene-hydrazinocarbonyl)-thiophen-2-yl]-benzamide]
1.27	–	Cc1ccc(/C=N/NC(=O)c2ccccc2NC(=O)c2cccc(F)c2)cc1C [Compound 95, N-[2-(3,4-Dimethyl-benzylidene-hydrazinocarbonyl)-phenyl]-3-fluoro-benzamide]
2.57	–	CCN(CC)CCN(C)Cc1cccc(C(=O)Nc2ccc(N3CCOCC3)cc2C(=O)N/N=C/c2ccc(OC)cc2)c1 [Compound 1076, 3-{[(2-Diethylamino-ethyl)-methyl-amino]-methyl}-N-[2-(4-methoxy-benzylidene-hydrazinocarbonyl)-4-morpholin-4-yl-phenyl]-benzamide]
0.64	–	O=C(Nc1ccc(Br)cc1C(=O)N/N=C/c1ccc(F)cc1)c1ccccn1 [Compound 496, Pyridin-2-carboxylic acid [4-bromo-2-(4-fluoro-benzylidene-hydrazinocarbonyl)-phenyl]-amide]
0.43	–	O=C(Nc1sc2c(c1C(=O)N/N=C/c1cccc(F)c1)CCCC2)c1cccc(CSCCCO)c1 [Compound 607, N-[3-(3-Fluoro-benzylidene-hydrazinocarbonyl)-4,5,6,7-tetrahydro-benzo[b]thiophen-2-yl]-3-(3-hydroxy-propylsulfanylmethyl)-benzamide]
12.8	–	COc1ccc(C(=O)Nc2cc(Cl)ccc2C(=O)N/N=C/c2cccc(O)c2)cc1OC [Compound 75, N-[5-Chloro-2-(3-hydroxy-benzylidene-hydrazinocarbonyl)-phenyl]-3,4-dimethoxy-benzamide]
1.58	–	COc1ccc(C(=O)Nc2ccc(Br)cc2C(=O)N/N=C/c2ccc(Cl)cc2)cc1OC [Compound 60, N-[4-Bromo-2-(4-chloro-benzylidene-hydrazinocarbonyl)-phenyl]-3,4-dimethoxy-benzamide]
0.11	–	CCN(CC)CCN(C)Cc1ccc(C(=O)Nc2ccc(Br)cc2C(=O)NN=Cc2ccc(F)cc2)cc1 [Compound 287, N-[4-Bromo-2-(4-fluoro-benzylidene-hydrazinocarbonyl)-phenyl]-4-{[(2-diethylamino-ethyl)-methyl-amino]-methyl}-benzamide]
< 3	–	CCN(CC)CCN(C)Cc1cccc(C(=O)Nc2ccc(I)cc2C(=O)N/N=C/c2ccc(C)c(C)c2)c1 [Compound 476, 3-{[(2-Diethylamino-ethyl)-methyl-amino]-methyl}-N-[2-(3,4-dimethyl-benzylidene-hydrazinocarbonyl)-4-iodo-phenyl]-benzamide]
0.88	–	Cc1ccc(/C=N/NC(=O)c2cc(Cl)ccc2NC(=O)c2cccc(CN(CCO)CCO)c2)cc1C [Compound 406, 3-{[Bis-(2-hydroxy-ethyl)-amino]-methyl}-N-[4-chloro-2-(3,4-dimethyl-benzylidene-hydrazinocarbonyl)-phenyl]-benzamide]
1.23	–	Cc1ccc(/C=N/NC(=O)c2cc(Br)ccc2NC(=O)c2ccc(CN(CC(C)O)CC(C)O)cc2)cc1 (stereo not shown) [Compound 304, 4-{[Bis-(2-hydroxy-propyl)-amino]-methyl}-N-[4-bromo-2-(4-methyl-benzylidene-hydrazinocarbonyl)-phenyl]-benzamide]
10.2	–	CCc1ccc(C(=O)Nc2ccc(Br)cc2C(=O)N/N=C/c2ccc(C)c(C)c2)cc1 [Compound 182, N-[4-Bromo-2-(3,4-dimethyl-benzylidene-hydrazinocarbonyl)-phenyl]-4-ethyl-benzamide]
< 3	–	Cc1ccc(CNNC(=O)c2cc(Cl)ccc2NC(=O)c2cccc(CSCCO)c2)cc1C [Compound 492, N-{4-Chloro-2-[N′-(3,4-dimethyl-benzyl)-hydrazinocarbonyl]-phenyl}-3-(2-hydroxy-ethylsulfanylmethyl)-benzamide]
2.14	–	CC(O)CN(Cc1cccc(C(=O)Nc2ccc(F)cc2C(=O)N/N=C/c2ccc(Cl)c(C(F)(F)F)c2)c1)CC(C)O (stereo not shown) [Compound 853, 3-{[Bis-(2-hydroxy-propyl)-amino]-methyl}-N-[2-(4-chloro-3-trifluoromethyl-benzylidene-hydrazinocarbonyl)-4-fluoro-phenyl]-benzamide; hydrochloride]
2.63	–	CCN(CC)CCN(Cc1cccc(C(=O)Nc2sc3c(c2C(=O)N/N=C/c2ccc(OC)cc2)CCCC3)c1)C(C)=O [Compound 657, 3-{[Acetyl-(2-diethylamino-ethyl)-amino]-methyl}-N-[3-(4-methoxy-benzylidene-hydrazinocarbonyl)-4,5,6,7-tetrahydro-benzo[b]thiophen-2-yl]-benzamide]
–	39.3	Cc1ccc(/C=N/NC(=O)c2cc(N3CCCC(C(=O)O)C3)ccc2NC(=O)c2cccc(CSCCO)c2)cc1C (stereo not shown) [Compound 934, 1-{3-(3,4-Dimethyl-benzylidene-hydrazinocarbonyl)-4-[3-(2-hydroxy-ethylsulfanylmethyl)-benzoylamino]-phenyl}-piperidine-3-carboxylic acid]

Reference: patent publication US8134015B2, “Compound inhibiting in vivo phosphorous transport and medicine containing the same” (Kyowa Hakko Kirin Co., Ltd., priority 2003, dated 2012)
